Data taken from patent US20260226068A1, “IMIDAZOTRIAZINE IL-17A MODULATORS AND USES THEREOF” (DICE ALPHA, INC., priority 2023, published 2026).

Columns and labels:
[1] = molecular target: T1, IL-17A/A (Homo sapiens, UniProt Q16552); test: IL-17A/A HEK-Blue cell assay (SEAP reporter); assay type: cell-based; conditions: HEK-Blue IL-17A reporter cells, IL17A/A 5 ng/mL, 20 hours, SEAP read at A630; read-out: HEK-Blue IL17AA (IC50 for IL-17A/A inhibition)
T1 construct: purchased Genscript Z03228
T1 sequence (Q16552 24-155): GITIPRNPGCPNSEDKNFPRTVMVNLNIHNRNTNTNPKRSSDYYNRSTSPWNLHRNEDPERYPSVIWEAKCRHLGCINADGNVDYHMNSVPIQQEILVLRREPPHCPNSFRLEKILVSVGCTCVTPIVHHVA
Description: (§1) The HEK-Blue IL-17A reporter cell line (Fisher #NC 1408637) was used for cell-based IL-17A/A inhibition assays. Cells were grown and prepared for assays according to the manufacturer's instructions. This cell line consists of HEK 293 cells that were designed to expressed IL-17RA, IL-17RC, and the Act1 adapter molecule, the combination of which, when stimulated by IL-17A/A or IL17A/F activates a […] promoter and drives expression of the recombinant Secreted Alkaline Phosphatase (SEAP) gene. Media from the cells is then added to a development reagent (Quanti-Blue Substrate, Fisher #NC971 1613), and read at A630.
(§2) Compounds were dispensed in DMSO to an empty clear 384-well tissue culture plate in a titration ranging from 10 μM to 27 pM, with DMSO added to every well to a final concentration of […]. Cells were then added to the plate (45 μL/well at a concentration of 280,000 cells/mL). IL17A/A (Genscript #Z03228) or IL17A/F (R&D Systems) was added to the plate to a final concentration of 5 ng/mL and a final well volume of 50 μL. The cells, compound, and IL-17A/A or IL17A/F were then incubated for 20 hours before media was removed for SEAP analysis. The resulting inhibition curve was then analyzed using Dotmatics' integrated 4-parameter fit screening protocol to generate IC50 values.
(§3) Table 2 includes IC50 values for IL-17A/A and IL-17A/F inhibition of selected compounds; with compounds having a IC50 of A<100 nM; B 100-1000 nM; and C>1000 nM.

[2] = molecular target: T2, IL-17A/F (Homo sapiens, UniProt Q16552+Q96PD4); test: IL-17A/F HEK-Blue cell assay (SEAP reporter); assay type: cell-based; conditions: HEK-Blue IL-17A reporter cells, IL17A/F 5 ng/mL, 20 hours, SEAP read at A630; read-out: HEK-Blue IL17AF (IC50 for IL-17A/F inhibition)
T2 construct: purchased R&D Systems
T2 sequence (Q16552 24-155): T1 sequence (Q16552 24-155)
T2 sequence (Q96PD4 31-163): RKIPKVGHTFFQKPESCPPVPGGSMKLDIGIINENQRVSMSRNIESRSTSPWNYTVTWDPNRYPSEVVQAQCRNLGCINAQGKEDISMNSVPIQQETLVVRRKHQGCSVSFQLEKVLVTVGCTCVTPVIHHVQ
Description: as §1, §2, §3

Structure (SMILES)	IC50 [1] [nM]	IC50 [2] [nM]
CCn1nccc1C(=O)N[C@H](c1cn2nc(C[C@H]3C[C@@H](C(F)(F)F)CNC3=O)c(C3CCOC3)nc2n1)[C@@H]1CCCC(F)(F)C1 (single isomer, unassigned) [Compound 72]	< 100	100 to 1000
CCn1nccc1C(=O)N[C@H](c1cn2nc(C[C@H]3C[C@@H](C(F)(F)F)CNC3=O)c(C3CCOC3)nc2n1)[C@@H]1CCCC(F)(F)C1 (single isomer, unassigned) [Compound 73]	< 100	100 to 1000
O=C(N[C@H](c1cn2nc(C[C@H]3C[C@@H](C(F)(F)F)CNC3=O)cnc2n1)C1CCC(F)(F)CC1)c1nonc1[C@H]1CC1(F)F (single isomer, unassigned) [Compound 76]	100 to 1000	> 1000
O=C(N[C@H](c1cn2nc(C[C@H]3C[C@@H](C(F)(F)F)CNC3=O)cnc2n1)C1CCC(F)(F)CC1)c1nonc1[C@@H]1CC1(F)F (single isomer, unassigned) [Compound 77]	< 100	> 1000
CC(C)n1nccc1C(=O)N[C@H](c1cn2nc(CC3C[C@@H](C(F)(F)F)CNC3=O)c(N3CCOCC3)nc2n1)C1CCC(F)(F)CC1 (single isomer, unassigned) [Compound 79]	< 100	100 to 1000
CC(C)n1nccc1C(=O)N[C@H](c1cn2nc(CC3C[C@@H](C(F)(F)F)CNC3=O)c(N3CCOCC3)nc2n1)C1CCC(F)(F)CC1 (single isomer, unassigned) [Compound 80]	< 100	> 1000
CCn1nccc1C(=O)N[C@H](c1cn2nc(CC3C[C@@H](C(F)(F)F)CNC3=O)c(N3CC4CC(C3)O4)nc2n1)C1CCC(F)(F)CC1 (single isomer, unassigned) [Compound 81]	< 100	100 to 1000
CCn1nccc1C(=O)N[C@H](c1cn2nc(CC3C[C@@H](C(F)(F)F)CNC3=O)c(N3CC4CC(C3)O4)nc2n1)C1CCC(F)(F)CC1 (single isomer, unassigned) [Compound 82]	< 100	> 1000
CCn1nccc1C(=O)N[C@H](c1cn2nc(CC3C[C@@H](C(F)(F)F)CNC3=O)c(N3C[C@H]4CC[C@@H](C3)O4)nc2n1)C1CCC(F)(F)CC1 (single isomer, unassigned) [Compound 83]	< 100	100 to 1000
CCn1nccc1C(=O)N[C@H](c1cn2nc(CC3C[C@@H](C(F)(F)F)CNC3=O)c(N3C[C@H]4CC[C@@H](C3)O4)nc2n1)C1CCC(F)(F)CC1 (single isomer, unassigned) [Compound 84]	< 100	100 to 1000
CCn1nccc1C(=O)N[C@H](c1cn2nc(CC3C[C@@H](C(F)(F)F)CNC3=O)c(N3C[C@H]4C[C@@H]3CO4)nc2n1)C1CCC(F)(F)CC1 (single isomer, unassigned) [Compound 85]	100 to 1000	> 1000
CCn1nccc1C(=O)N[C@H](c1cn2nc(CC3C[C@@H](C(F)(F)F)CNC3=O)c(N3C[C@H]4C[C@@H]3CO4)nc2n1)C1CCC(F)(F)CC1 (single isomer, unassigned) [Compound 86]	< 100	100 to 1000
CCn1nccc1C(=O)N[C@H](c1cn2nc(CC3C[C@@H](C(F)(F)F)CNC3=O)c(N3CCOCC3)nc2n1)[C@H]1CCCC(F)(F)C1 (single isomer, unassigned) [Compound 90]	< 100	100 to 1000
CCn1nccc1C(=O)N[C@H](c1cn2nc(CC3C[C@@H](C(F)(F)F)CNC3=O)c(N3CCOCC3)nc2n1)[C@H]1CCCC(F)(F)C1 (single isomer, unassigned) [Compound 91]	< 100	100 to 1000
CCn1nccc1C(=O)N[C@H](c1cn2nc(CC3C[C@@H](C(F)(F)F)CNC3=O)c(N3CC4CC(C3)O4)nc2n1)[C@H]1CCCC(F)(F)C1 (single isomer, unassigned) [Compound 92]	< 100	100 to 1000
CCn1nccc1C(=O)N[C@H](c1cn2nc(CC3C[C@@H](C(F)(F)F)CNC3=O)c(N3CC4CC(C3)O4)nc2n1)[C@H]1CCCC(F)(F)C1 (single isomer, unassigned) [Compound 93]	< 100	100 to 1000

Structure (SMILES)	IC50 [1] [nM]	IC50 [2] [nM]
CCn1nccc1C(=O)N[C@H](c1cn2nc(CC3C[C@@H](C(F)(F)F)CNC3=O)c(N3CCOCC3)nc2n1)[C@@H]1CCCC(F)(F)C1 (single isomer, unassigned) [Compound 94]	< 100	100 to 1000
CCn1nccc1C(=O)N[C@H](c1cn2nc(CC3C[C@@H](C(F)(F)F)CNC3=O)c(N3CCOCC3)nc2n1)[C@@H]1CCCC(F)(F)C1 (single isomer, unassigned) [Compound 95]	< 100	100 to 1000
CCn1nccc1C(=O)N[C@H](c1cn2nc(CC3C[C@@H](C(F)(F)F)CNC3=O)c(N3CC4CC(C3)O4)nc2n1)[C@@H]1CCCC(F)(F)C1 (single isomer, unassigned) [Compound 96]	< 100	100 to 1000
CCn1nccc1C(=O)N[C@H](c1cn2nc(CC3C[C@@H](C(F)(F)F)CNC3=O)c(N3CC4CC(C3)O4)nc2n1)[C@@H]1CCCC(F)(F)C1 (single isomer, unassigned) [Compound 97]	< 100	> 1000
CCn1nccc1C(=O)N[C@H](c1cn2nc(CC3C[C@@H](C(F)(F)F)CNC3=O)c(N3C[C@@H]4C[C@H]3CO4)nc2n1)C1CCC(F)(F)CC1 (single isomer, unassigned) [Compound 98]	< 100	< 100
CCn1nccc1C(=O)N[C@H](c1cn2nc(CC3C[C@@H](C(F)(F)F)CNC3=O)c(N3C[C@@H]4C[C@H]3CO4)nc2n1)C1CCC(F)(F)CC1 (single isomer, unassigned) [Compound 99]	< 100	> 1000
CC(C)n1nccc1C(=O)N[C@H](c1cn2nc(CC3C[C@@H](C(F)(F)F)CNC3=O)c(N3CCOCC3)nc2n1)[C@H]1CC[C@H](C)CC1 (single isomer, unassigned) [Compound 100]	< 100	< 100
CC(C)n1nccc1C(=O)N[C@H](c1cn2nc(CC3C[C@@H](C(F)(F)F)CNC3=O)c(N3CCOCC3)nc2n1)[C@H]1CC[C@H](C)CC1 (single isomer, unassigned) [Compound 101]	< 100	100 to 1000
CCn1nccc1C(=O)N[C@H](c1cn2nc(CC3C[C@@H](C(F)(F)F)CNC3=O)c(N3CC4CC(C3)O4)nc2n1)[C@H]1CC[C@H](C)CC1 (single isomer, unassigned) [Compound 102]	< 100	< 100
CCn1nccc1C(=O)N[C@H](c1cn2nc(CC3C[C@@H](C(F)(F)F)CNC3=O)c(N3CC4CC(C3)O4)nc2n1)[C@H]1CC[C@H](C)CC1 (single isomer, unassigned) [Compound 103]	< 100	100 to 1000
CCn1nccc1C(=O)N[C@H](c1cn2nc(CC3C[C@@H](C(F)(F)F)CNC3=O)c(N3CC4CCC(C3)O4)nc2n1)[C@H]1CC[C@H](C)CC1 (single isomer, unassigned) [Compound 104]	< 100	< 100
CCn1nccc1C(=O)N[C@H](c1cn2nc(CC3C[C@@H](C(F)(F)F)CNC3=O)c(N3CC4CCC(C3)O4)nc2n1)[C@H]1CC[C@H](C)CC1 (single isomer, unassigned) [Compound 105]	< 100	100 to 1000
CCn1nccc1C(=O)N[C@H](c1cn2nc(CC3C[C@@H](C(F)(F)F)CNC3=O)c(N3C[C@H]4C[C@@H]3CO4)nc2n1)[C@H]1CC[C@H](C)CC1 (single isomer, unassigned) [Compound 106]	< 100	> 1000
CCn1nccc1C(=O)N[C@H](c1cn2nc(CC3C[C@@H](C(F)(F)F)CNC3=O)c(N3C[C@H]4C[C@@H]3CO4)nc2n1)[C@H]1CC[C@H](C)CC1 (single isomer, unassigned) [Compound 107]	< 100	100 to 1000
CCn1nccc1C(=O)N[C@H](c1cn2nc(CC3C[C@@H](C(F)(F)F)CNC3=O)c(N3C[C@@H]4C[C@H]3CO4)nc2n1)[C@H]1CC[C@H](C)CC1 (single isomer, unassigned) [Compound 108]	< 100	< 100
CCn1nccc1C(=O)N[C@H](c1cn2nc(CC3C[C@@H](C(F)(F)F)CNC3=O)c(N3C[C@@H]4C[C@H]3CO4)nc2n1)[C@H]1CC[C@H](C)CC1 (single isomer, unassigned) [Compound 109]	< 100	100 to 1000
